In general, share remaining refers to the share of the starting amount still present when the sample was taken. Read a low share remaining as more turnover. One may read the IC50 as the midpoint of a concentration-inhibition curve.

Values joined by “and” are separate entries in the source; they are usually repeats but may differ in a detail not shown here. Equal entries are not always repeated. Where two headings read alike, the source gives them in different places.

The nature of data set [1]: in vitro. The note with it: human, plasma.
For data set [2] the following is noted: cyno plasma, 37° C., incubation 0 hr.
Data set [3] is described as follows: in vitro. The note with it: monkey, plasma.
The conditions of data set [4]: human plasma, 37° C., incubation 0 hr.
Data set [5] deals with T1, hNav1.5 (Homo sapiens, UniProt Q14524). Nature of the data set: cell-based. The note with it: PatchXpress; * = at high concentrations compound would wash off slowly or not at all; read-out: PX hNav1.5 Tonic IC50.
For data set [6], the target named is hNav1.8 (Homo sapiens, UniProt Q9Y5Y9). Nature of the data set: cell-based. In kind it is cell-based. As to conditions: WCPC, n=2.
The subject of data set [7] is hNav1.8. Put plainly: cell-based. In kind it is cell-based, human.
Data set [8] has as its target T2, hNav1.3 (Homo sapiens, UniProt Q9NY46). The data set is classed as cell-based.
In data set [9] the target is T3, hNav1.7 (Homo sapiens, UniProt Q15858). Nature of the data set: cell-based. In kind it is cell-based. As to conditions: for 1.x/1.7, partially inactivated: hNav1.7 vs hNav1.7, partially inactivated.
Data set [10] has as its target T1, hNav1.5. Put plainly: cell-based. The note with it: IonWorks Quattro; read-out: IC50 Nav1.5. (Patch clamp records ionic current or voltage across a cell membrane.)
Data set [11] deals with TTX-sensitive Nav channels in mouse DRG neuron. The data set is classed as cell-based.
For data set [12], the target named is T4, hNav1.4 (Homo sapiens, UniProt P35499). The data set is classed as cell-based.
In data set [13] the target is T1, hNav1.5. Put plainly: cell-based. In kind it is cell-based.
The target in data set [14] is T2, hNav1.3. Put plainly: cell-based. As to conditions: IonWorks Quattro; read-out: IC50 Nav1.3.
Data set [15] addresses T3, hNav1.7. Put plainly: cell-based. The note with it: IonWorks Quattro; read-out: IC50 Nav1.7.
For data set [16] the following is noted: mouse plasma, 37° C., incubation time 0 hr (normalisation point).
Data set [17] concerns the target T4, hNav1.4. Put plainly: cell-based. The note with it: PatchXpress; * = at high concentrations compound would wash off slowly or not at all; read-out: PX hNav1.4 Tonic IC50.
Data set [18] deals with T4, hNav1.4. Nature of the data set: cell-based. As to conditions: for IC50: IonWorks Quattro, read-out: IC50 Nav1.4.
For data set [19] the following is noted: rat plasma, 37° C., incubation time 0 hr (normalisation point).
Data set [20] concerns the target T3, hNav1.7. Put plainly: cell-based. In kind it is cell-based. As to conditions: PatchXpress; * = at high concentrations compound would wash off slowly or not at all; read-out: PX hNav1.7 Tonic IC50.
The nature of data set [21]: in vitro. The note with it: rat, plasma.
Data set [22] is described as follows: in vitro. As to conditions: mouse, plasma.

T1 sequence (Q14524 whole entry): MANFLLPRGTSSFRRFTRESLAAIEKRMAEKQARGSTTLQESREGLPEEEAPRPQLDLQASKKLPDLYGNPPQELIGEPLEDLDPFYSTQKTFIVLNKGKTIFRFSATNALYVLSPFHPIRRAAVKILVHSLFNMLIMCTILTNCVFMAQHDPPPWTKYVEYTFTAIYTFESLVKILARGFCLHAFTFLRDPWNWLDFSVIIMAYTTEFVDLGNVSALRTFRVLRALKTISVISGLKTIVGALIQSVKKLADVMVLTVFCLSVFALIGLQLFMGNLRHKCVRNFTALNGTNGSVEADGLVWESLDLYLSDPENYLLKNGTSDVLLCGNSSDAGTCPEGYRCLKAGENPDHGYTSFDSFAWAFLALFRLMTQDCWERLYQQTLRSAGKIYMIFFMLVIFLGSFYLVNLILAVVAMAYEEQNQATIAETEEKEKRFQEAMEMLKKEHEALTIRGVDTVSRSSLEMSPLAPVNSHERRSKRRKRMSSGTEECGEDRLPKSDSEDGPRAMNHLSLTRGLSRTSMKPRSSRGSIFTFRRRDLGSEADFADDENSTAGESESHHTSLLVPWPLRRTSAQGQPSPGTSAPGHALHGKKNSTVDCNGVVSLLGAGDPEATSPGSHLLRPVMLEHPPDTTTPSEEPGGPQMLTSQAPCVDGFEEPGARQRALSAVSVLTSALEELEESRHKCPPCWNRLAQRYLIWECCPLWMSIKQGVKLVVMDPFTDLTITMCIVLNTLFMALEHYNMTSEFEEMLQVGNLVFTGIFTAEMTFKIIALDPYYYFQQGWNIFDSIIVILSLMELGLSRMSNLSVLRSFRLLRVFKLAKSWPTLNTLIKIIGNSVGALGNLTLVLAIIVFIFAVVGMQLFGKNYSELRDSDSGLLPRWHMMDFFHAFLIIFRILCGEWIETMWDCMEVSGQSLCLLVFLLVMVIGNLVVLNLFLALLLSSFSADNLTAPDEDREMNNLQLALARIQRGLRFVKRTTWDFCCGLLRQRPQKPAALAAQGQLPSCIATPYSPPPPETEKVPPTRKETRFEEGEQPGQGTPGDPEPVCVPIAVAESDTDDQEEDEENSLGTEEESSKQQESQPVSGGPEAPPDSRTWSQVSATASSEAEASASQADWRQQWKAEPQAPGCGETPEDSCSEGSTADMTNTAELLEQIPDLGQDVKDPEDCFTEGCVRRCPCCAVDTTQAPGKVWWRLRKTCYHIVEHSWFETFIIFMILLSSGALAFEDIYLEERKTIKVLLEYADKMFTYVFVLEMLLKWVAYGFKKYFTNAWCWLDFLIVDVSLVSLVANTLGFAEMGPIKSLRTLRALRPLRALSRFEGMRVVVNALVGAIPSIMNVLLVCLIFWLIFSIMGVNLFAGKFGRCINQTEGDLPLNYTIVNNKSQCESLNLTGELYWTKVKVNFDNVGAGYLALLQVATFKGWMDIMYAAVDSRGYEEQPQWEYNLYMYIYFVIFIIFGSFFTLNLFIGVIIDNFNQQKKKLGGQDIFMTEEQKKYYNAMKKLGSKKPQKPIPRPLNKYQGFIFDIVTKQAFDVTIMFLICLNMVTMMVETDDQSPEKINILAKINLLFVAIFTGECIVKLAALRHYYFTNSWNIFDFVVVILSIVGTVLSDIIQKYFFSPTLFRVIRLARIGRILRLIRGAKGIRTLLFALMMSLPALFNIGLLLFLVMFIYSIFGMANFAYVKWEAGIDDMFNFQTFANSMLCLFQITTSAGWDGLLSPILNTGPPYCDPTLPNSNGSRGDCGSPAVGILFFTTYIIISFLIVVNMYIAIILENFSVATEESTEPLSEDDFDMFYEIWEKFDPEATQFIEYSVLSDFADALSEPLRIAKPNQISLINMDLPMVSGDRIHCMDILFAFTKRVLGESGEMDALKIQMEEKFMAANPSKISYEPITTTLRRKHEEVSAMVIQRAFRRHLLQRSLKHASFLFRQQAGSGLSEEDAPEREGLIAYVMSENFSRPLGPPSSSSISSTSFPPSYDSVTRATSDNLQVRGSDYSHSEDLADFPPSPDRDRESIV
T4 sequence (P35499 whole entry): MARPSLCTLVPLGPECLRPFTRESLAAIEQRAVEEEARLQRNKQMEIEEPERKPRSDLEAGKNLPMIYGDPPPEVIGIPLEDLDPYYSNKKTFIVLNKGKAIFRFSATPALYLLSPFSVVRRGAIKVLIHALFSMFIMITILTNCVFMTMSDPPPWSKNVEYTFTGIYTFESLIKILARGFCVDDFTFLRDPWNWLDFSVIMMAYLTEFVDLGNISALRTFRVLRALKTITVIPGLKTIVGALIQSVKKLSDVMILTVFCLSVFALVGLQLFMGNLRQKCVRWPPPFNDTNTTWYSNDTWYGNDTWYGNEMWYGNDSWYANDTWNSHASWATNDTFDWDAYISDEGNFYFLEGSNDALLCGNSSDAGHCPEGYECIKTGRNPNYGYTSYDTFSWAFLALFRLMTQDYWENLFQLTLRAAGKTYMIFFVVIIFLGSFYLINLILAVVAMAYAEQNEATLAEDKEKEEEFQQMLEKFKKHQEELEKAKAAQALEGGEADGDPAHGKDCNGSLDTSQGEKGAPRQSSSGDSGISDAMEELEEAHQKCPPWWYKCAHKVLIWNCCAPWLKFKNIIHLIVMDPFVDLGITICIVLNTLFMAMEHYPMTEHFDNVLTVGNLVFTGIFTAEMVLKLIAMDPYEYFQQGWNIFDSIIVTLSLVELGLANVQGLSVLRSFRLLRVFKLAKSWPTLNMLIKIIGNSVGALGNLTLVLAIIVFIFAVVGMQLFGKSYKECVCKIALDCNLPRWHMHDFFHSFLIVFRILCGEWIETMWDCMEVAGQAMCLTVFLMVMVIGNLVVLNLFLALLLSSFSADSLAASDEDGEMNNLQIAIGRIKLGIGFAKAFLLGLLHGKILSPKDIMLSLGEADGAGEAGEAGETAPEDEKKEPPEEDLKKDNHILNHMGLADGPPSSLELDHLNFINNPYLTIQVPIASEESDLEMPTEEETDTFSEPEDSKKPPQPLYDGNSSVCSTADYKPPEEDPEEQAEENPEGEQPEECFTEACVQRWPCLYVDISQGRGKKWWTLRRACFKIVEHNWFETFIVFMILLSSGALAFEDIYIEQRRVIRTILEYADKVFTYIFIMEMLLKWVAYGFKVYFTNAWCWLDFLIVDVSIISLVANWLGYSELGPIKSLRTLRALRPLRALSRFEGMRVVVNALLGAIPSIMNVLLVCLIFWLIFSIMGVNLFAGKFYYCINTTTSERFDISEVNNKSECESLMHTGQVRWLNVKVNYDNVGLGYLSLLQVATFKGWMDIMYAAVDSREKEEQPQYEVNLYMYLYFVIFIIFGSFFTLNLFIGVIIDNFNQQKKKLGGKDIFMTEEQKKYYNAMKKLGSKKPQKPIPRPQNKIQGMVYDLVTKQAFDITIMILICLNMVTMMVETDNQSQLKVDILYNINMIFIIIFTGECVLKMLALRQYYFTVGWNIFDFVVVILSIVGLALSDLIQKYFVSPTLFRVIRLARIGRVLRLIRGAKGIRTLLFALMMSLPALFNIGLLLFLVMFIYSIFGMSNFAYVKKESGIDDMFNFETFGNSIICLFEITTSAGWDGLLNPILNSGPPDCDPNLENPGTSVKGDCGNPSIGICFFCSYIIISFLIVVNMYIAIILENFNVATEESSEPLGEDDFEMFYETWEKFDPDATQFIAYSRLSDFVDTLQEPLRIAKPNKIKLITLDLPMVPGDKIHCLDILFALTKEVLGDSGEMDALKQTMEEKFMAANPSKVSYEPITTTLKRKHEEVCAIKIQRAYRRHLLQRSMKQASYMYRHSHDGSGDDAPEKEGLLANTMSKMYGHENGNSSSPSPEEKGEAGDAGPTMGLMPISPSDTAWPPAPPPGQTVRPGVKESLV

In the data set “in vitro [1]”, `CC[C@H](C)[C@H](NC(=O)[C@H](CO)NC(=O)[C@H](CCCCN)NC(=O)[C@H](CCCNC(=N)N)NC(=O)[C@@H]1CSSC[C@@H]2NC(=O)[C@H](C)NC(=O)[C@H](CCCNC(=N)N)NC(=O)[C@H](CCCCN)NC(=O)[C@H](CO)NC(=O)[C@H](CC(=O)O)NC(=O)[C@@H]3CSSC[C@H](NC(=O)[C@H](CCC(=O)O)NC(=O)[C@H](CC(C)C)NC(=O)CNC(=O)[C@H](CCC(=O)O)NC(=O)[C@H](CSSC[C@H](NC(=O)[C@@H](N)Cc4ccc(O)cc4)C(=O)N[C@@H](CCC(N)=O)C(=O)N[C@@H](CCCCN)C(=O)N[C@@H](Cc4c[nH]c5ccccc45)C(=O)N[C@@H](CCSC)C(=O)N[C@@H](Cc4c[nH]c5ccccc45)C(=O)N[C@@H]([C@@H](C)O)C(=O)N3)NC2=O)C(=O)N[C@@H](CCCCN)C(=O)N[C@@H](CC(C)C)C(=O)N[C@@H](Cc2c[nH]c3ccccc23)C(=O)N1)C(N)=O` [SEQ ID NO: 138, [Glu20;Ser28]JzTx-V(1-29)] yielded an amount remaining at 2 h of 86%, an amount remaining at 4 h of 82%, a share remaining at 6 h of 72% and a share remaining at 8 h of 68%. Also, the amount remaining at 24 h in the data set “in vitro [1]” turned out to be 49%. The “% Peptide Remaining” value in [2] was 100%. In the data set “in vitro [3]”, this compound returned a fraction remaining at 2 h of 78%, a share remaining at 4 h of 75%, a fraction remaining at 6 h of 69% and a share remaining at 8 h of 62%. Besides, the fraction remaining at 24 h in the data set “in vitro [3]” amounted to 59%. Further, the “% Peptide Remaining” value in data set [4] came out at 100%.

With `CC[C@H](C)[C@H](NC(=O)[C@@H](NC(=O)[C@H](CCCCN)NC(=O)[C@H](CCCNC(=N)N)NC(=O)[C@@H]1CSSC[C@@H]2NC(=O)[C@H](C)NC(=O)[C@H](CCCNC(=N)N)NC(=O)[C@H](CCCCN)NC(=O)[C@H](CO)NC(=O)[C@H](CC(=O)O)NC(=O)[C@@H]3CSSC[C@H](NC(=O)[C@H](CCCNC(=N)N)NC(=O)[C@H](CC(C)C)NC(=O)CNC(=O)[C@H](CCC(=O)O)NC(=O)[C@H](CSSC[C@H](NC(=O)[C@@H](N)Cc4ccc(O)cc4)C(=O)N[C@@H](CCC(N)=O)C(=O)N[C@@H](CCCCN)C(=O)N[C@@H](Cc4c[nH]c5ccccc45)C(=O)N[C@@H](CCSC)C(=O)N[C@@H](Cc4c[nH]c5ccccc45)C(=O)N[C@@H]([C@@H](C)O)C(=O)N3)NC2=O)C(=O)N[C@@H](CCCCN)C(=O)N[C@@H](CC(C)C)C(=O)N[C@@H](Cc2c[nH]c3ccccc23)C(=O)N1)[C@@H](C)CC)C(N)=O` [compound 2], the IC50 at hNav1.5 [5] is 1600 nM and 2210 nM and 3250 nM; on hNav1.8 [6] (hNav1.8, fully non-inactivated, read-out: Mean IC50, fully non-inactivated), 810 nM; on hNav1.8 [6] (hNav1.8, partially inactivated, read-out: Mean IC50, partially inactivated) it was 530 nM; on hNav1.5 [10] it was 7200 nM and > 7000 nM; against hNav1.5 [13] (WCPC, hNav1.5, fully non-inactivated, n=2), 882 nM. Besides, the “1.x/1.7, fully non-inactivated” value is 5724 with hNav1.8 [7] (hNav1.8 vs hNav1.7, fully non-inactivated); 99 on hNav1.3 [8] (hNav1.3 vs hNav1.7, fully non-inactivated); 1 at hNav1.7 [9] (hNav1.7 vs hNav1.7, fully non-inactivated); 530 in [11] (mTTX-S vs hNav1.7, fully non-inactivated); 75 on hNav1.4 [12] (hNav1.4 vs hNav1.7, fully non-inactivated); 6230 on hNav1.5 [13] (hNav1.5 vs hNav1.7, fully non-inactivated). In addition, the “1.x/1.7, partially inactivated” value in the data set on hNav1.8 [7] (hNav1.8 vs hNav1.7, partially inactivated) is 3282; at hNav1.3 [8] (hNav1.3 vs hNav1.7, partially inactivated) it was 76; on hNav1.7 [9], 1; in [11] (mTTX-S vs hNav1.7, partially inactivated), 111; on hNav1.4 [12] (hNav1.4 vs hNav1.7, partially inactivated), 58; at hNav1.5 [13] (hNav1.5 vs hNav1.7, partially inactivated), 2641.

As to `CC[C@H](C)[C@H](NC(=O)[C@H](CCCCN)NC(=O)[C@H](CCCNC(=N)N)NC(=O)[C@@H]1CSSC[C@@H]2NC(=O)[C@H](C)NC(=O)[C@H](CCCNC(=N)N)NC(=O)[C@H](CCCCN)NC(=O)[C@H](CO)NC(=O)[C@H](CC(=O)O)NC(=O)[C@@H]3CSSC[C@H](NC(=O)[C@H](CCC(=O)O)NC(=O)[C@H](CC(C)C)NC(=O)CNC(=O)[C@H](CCC(=O)O)NC(=O)[C@H](CSSC[C@H](NC(=O)[C@@H](N)Cc4ccc(O)cc4)C(=O)N[C@@H](CCC(N)=O)C(=O)N[C@@H](CCCCN)C(=O)N[C@@H](Cc4c[nH]c5ccccc45)C(=O)N[C@@H](CCSC)C(=O)N[C@@H](Cc4c[nH]c5ccccc45)C(=O)N[C@@H]([C@@H](C)O)C(=O)N3)NC2=O)C(=O)N[C@@H](CCCCN)C(=O)N[C@@H](CC(C)C)C(=O)N[C@@H](Cc2c[nH]c3ccccc23)C(=O)N1)C(=O)N[C@@H](Cc1c[nH]c2ccccc12)C(N)=O` [compound 112], the IC50 was 3420 nM and 3950 nM and 4410 nM and 1320 nM and 1620 nM on hNav1.5 [5]; 3620 nM at hNav1.3 [14]; 30 nM and 17 nM on hNav1.7 [15]; 0.23 nM on hNav1.7 [9] (WCPC, hNav1.7, partially inactivated, n=2); 1130 nM and 824 nM and 1050 nM and 1350 nM and 2370 nM at hNav1.4 [17]; 6900 nM at hNav1.5 [10]. Besides, the IC50 on hNav1.4 [18] was over 5000 nM; at hNav1.7 [20], 2.8 nM and 0.67 nM and 1.3 nM and 0.5 nM and 1.41 nM and 2.15 nM and 1.82 nM and 2.12 nM. For the same compound, the “1.x/1.7, partially inactivated” value was found to be 1 on hNav1.7 [9]; 1213 in data set [11]; 917 in data set [11] (mTTX-S (fresh DRG) vs hNav1.7, partially inactivated). Besides, the “% Peptide Remaining” value in data set [16] and in data set [19] was 100% in each case. Also, the values for the amount remaining at 2 h in the data set “in vitro [21]” and in “in vitro [22]” were 95% and 88%, respectively. Also, the fraction remaining at 4 h amounted to 93% in “in vitro [21]” and 82% in the data set “in vitro [22]”. Besides, the fraction remaining at 6 h stood at 92% in the data set “in vitro [21]” and 85% in “in vitro [22]”. Further, the fraction remaining at 8 h in the data set “in vitro [21]” came to 89%; in “in vitro [22]”, 85%. The results for the amount remaining at 24 h in “in vitro [21]” and in “in vitro [22]” were 70% and 77%, respectively.

As to `CC[C@H](C)[C@H](NC(=O)[C@H](CO)NC(=O)[C@H](CCCCN)NC(=O)[C@H](CCCNC(=N)N)NC(=O)[C@@H]1CSSC[C@@H]2NC(=O)[C@H](C)NC(=O)[C@H](CCCNC(=N)N)NC(=O)[C@H](CCCCN)NC(=O)[C@H](CO)NC(=O)[C@H](CC(=O)O)NC(=O)[C@@H]3CSSC[C@H](NC(=O)[C@H](CCC(=O)O)NC(=O)[C@H](CC(C)C)NC(=O)CNC(=O)[C@H](CCC(=O)O)NC(=O)[C@H](CSSC[C@H](NC(=O)[C@@H](N)Cc4ccc(O)cc4)C(=O)N[C@@H](CCC(N)=O)C(=O)N[C@@H](CCCCN)C(=O)N[C@@H](Cc4c[nH]c5ccccc45)C(=O)N[C@@H](CCSC)C(=O)N[C@@H](Cc4c[nH]c5ccccc45)C(=O)N[C@@H]([C@@H](C)O)C(=O)N3)NC2=O)C(=O)N[C@@H](CCCCN)C(=O)N[C@@H](CC(C)C)C(=O)N[C@@H](Cc2c[nH]c3ccccc23)C(=O)N1)C(N)=O` [compound 138], the IC50 is > 10000 nM and 14600 nM at hNav1.5 [5]; over 5000 nM at hNav1.3 [14]; 80 nM and 150 nM at hNav1.7 [15]; 4790 nM and 3580 nM and 2970 nM at hNav1.4 [17]; 13900 nM and 9200 nM on hNav1.5 [10]; over 5000 nM on hNav1.4 [18]. For the same compound, on hNav1.7 [20], the IC50 was 3.3 nM and 2 nM and 0.4 nM. The “% Peptide Remaining” value in data set [16] and in data set [19] was 100% in each case. Moreover, the Nav1.4/Nav1.7 at hNav1.4 [18] (ratio of IonWorks Quattro IC50 values) is 62 and 34. The values for the fraction remaining at 2 h in the data set “in vitro [21]” and in “in vitro [22]” were 90% and 64%, respectively. The figures for the amount remaining at 4 h in “in vitro [21]” and in “in vitro [22]” were 81% and 61%, respectively. Moreover, the results for the share remaining at 6 h in “in vitro [21]” and in “in vitro [22]” were 71% and 55%, respectively. Also, the fraction remaining at 8 h in the data set “in vitro [21]” was determined as 67%; in the data set “in vitro [22]” it was 51%. Besides, the amount remaining at 24 h turned out to be 59% in “in vitro [21]” and 50% in “in vitro [22]”.

The values above are taken from patent US9636418B2 (priority 2013, dated 2017).
